Assay [1] concerns JAK2 dependent human megakaryoblastic leukemia cell line SET-2. In words: Cell proliferation assay, SET-2. Format: cell-based. The settings on record: SET-2 cells, 72 hours, CellTiter-Glo. In general terms: ATP-based viability assays read luminescence as a measure of living cells.
In assay [2] the test system is JAK2 independent human chronic myelogenous leukaemia cell line K562. In words: Cell proliferation assay, K562. Format: cell-based. The settings on record: K562 cells, 72 hours, CellTiter-Glo, read-out: IC50 K-562.
In a further assay the target is JAK1 kinase domain (Homo sapiens (Human), UniProt P23458). In words: Biochemical assay for inhibitors of JAK kinase activity, JAK1. The settings on record: preactivated JAK1 kinase domain 2.5 nM, 100 μM ATP. The procedure:
(§1) Specific JAK2, JAK1 or JAK3 peptide substrates are trans-phosphorylated by JAK kinases in the presence of ATP traced with 33P-γ-ATP. At the end of the phosphorylation reaction, the unreacted ATP, cold and radioactive, is captured by an excess of dowex ion exchange resin that eventually settles by gravity to the bottom of the reaction plate. The supernatant is subsequently withdrawn and transferred into a counting plate that is then evaluated by β-counting.
(§2) 500 g of wet resin (SIGMA, custom prepared resin DOWEX 1×8 200-400 mesh, 2.5 Kg) are weighed out and diluted 2 to 1 in 150 mM sodium formate, pH 3.00. The resin is allowed to settle down overnight and then the supernatant is discarded. After three washes as above over a couple of days, the resin is allowed to settle and two volumes (with respect to the resin volume) of 150 mM sodium formate buffer are added.
(§3) Kinase buffer was composed of 50 mM HEPES pH 7.5 containing 10 mM MgCl2, 2.5 mM DTT, 10 μM Na3VO4 and 0.2 mg/mL BSA.
Assays were performed with the JAK1 kinase domain (residues 861-1152 of the 1154 amino acid long full-length sequence, accession number P23458 of UniProtKB/Swiss-Prot database).
The JAK1 kinase domain was preactivated with ATP for 1 h at 28° C. in order to obtain a linear kinetic.
(§4) The peptidic substrate was purchased from American Peptide Company (Sunnyvale, Calif.).
(§5) Data are analyzed by Symix Assay Explorer software (Symix Technologies Inc.) that provides sigmoidal fitting algorithm of the 8 points dilutions curves for IC50 determination.

A further assay deals with TYK2 kinase domain (Homo sapiens (Human), UniProt P29597). In words: Biochemical assay for inhibitors of JAK kinase activity, TYK2. The settings on record: TYK2 kinase domain 3 nM, 31 μM ATP. The procedure:
as §1, §2, §3, §4, §5

In the next assay the target is JAK2 kinase domain (Homo sapiens (Human), UniProt O60674). The assay can be described thus: Biochemical assay for inhibitors of JAK kinase activity, JAK2. The settings on record: JAK2 kinase domain 1 nM, 60 μM ATP. The procedure: as §1, §2, §3, §4, §5
Assay [3] relates to IL-2 dependent human T lymphoma cell line DERL-7. The assay can be described thus: Cell proliferation assay, DERL-7. The settings on record: DERL7; DERL-7 cells, 20 ng/ml human IL-2, 72 hours, CellTiter-Glo. In kind it is cell-based. The procedure: the JAK2 dependent human megakaryoblastic leukemia cell line SET-2 (DSMZ, Braunschweig GERMANY), and JAK2 independent human chronic myelogenous leukaemia cell line K562 (ECACC, Wiltshire, UK) were cultured in RPMI-1640 medium-Glutamax (Gibco BRL, Gaithesburg, Md., USA), supplemented with 10% fetal bovine serum (FBS) at 37° C. and 5% CO2. The IL-2 dependent human T lymphoma cell line DERL-7 (DSMZ, Braunschweig GERMANY) was used to test the activity of compounds in cells on JAK1/JAK3 kinases activated by IL-2. The DERL-7 cell lines were cultured in RPMI-1640 medium-Glutamax (Gibco BRL, Gaithesburg, Md., USA), supplemented with 20% FBS and 20 ng/ml of human IL-2 (Sigma-Aldrich, St. Louis, Mo., USA).
Approximately 5×10^3 cells were plated into 384 microtiter plate wells in 50 μL of growth media with different concentrations of inhibitors. The cells were incubated at 37° C. and 5% CO2 for 72 hours, than the plates were processed using CellTiter-Glo assay (Promega, Madison, Wis., USA) following the manufacturer's instruction. Briefly 25 μL/well reagent solution are added to each wells and after 5 minutes shacking micro-plates are read by Envision luminometer (PerkinElmer, Waltham, Mass., USA).
as §5

We go through 12 compounds from patent US9688661B2, “Substituted pyrroles active as kinases inhibitors” (NERVIANO MEDICAL SCIENCES S.R.L., priority 2012, dated 2017).

Structures are written as SMILES.

Sequence of JAK1 kinase domain (P23458 861-1152): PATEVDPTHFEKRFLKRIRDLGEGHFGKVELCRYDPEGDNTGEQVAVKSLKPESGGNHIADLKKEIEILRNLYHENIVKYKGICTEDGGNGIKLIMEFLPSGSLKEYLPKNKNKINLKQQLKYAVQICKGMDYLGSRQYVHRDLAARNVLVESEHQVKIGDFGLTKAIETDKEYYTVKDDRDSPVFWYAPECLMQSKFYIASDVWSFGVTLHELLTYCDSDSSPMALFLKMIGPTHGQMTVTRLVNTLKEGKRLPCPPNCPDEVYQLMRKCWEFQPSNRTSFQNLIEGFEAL
Sequence of TYK2 kinase domain (P29597 833-1187): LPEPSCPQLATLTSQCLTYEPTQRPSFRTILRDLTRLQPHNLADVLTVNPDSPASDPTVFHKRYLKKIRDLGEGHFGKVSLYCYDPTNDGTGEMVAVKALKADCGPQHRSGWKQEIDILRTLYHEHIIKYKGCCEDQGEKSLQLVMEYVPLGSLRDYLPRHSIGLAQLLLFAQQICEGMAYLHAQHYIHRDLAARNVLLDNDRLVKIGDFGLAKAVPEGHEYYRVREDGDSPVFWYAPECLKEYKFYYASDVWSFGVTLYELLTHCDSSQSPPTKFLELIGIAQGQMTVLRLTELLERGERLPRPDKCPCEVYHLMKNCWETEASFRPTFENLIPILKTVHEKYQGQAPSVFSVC
Sequence of JAK2 kinase domain (O60674 849-1124): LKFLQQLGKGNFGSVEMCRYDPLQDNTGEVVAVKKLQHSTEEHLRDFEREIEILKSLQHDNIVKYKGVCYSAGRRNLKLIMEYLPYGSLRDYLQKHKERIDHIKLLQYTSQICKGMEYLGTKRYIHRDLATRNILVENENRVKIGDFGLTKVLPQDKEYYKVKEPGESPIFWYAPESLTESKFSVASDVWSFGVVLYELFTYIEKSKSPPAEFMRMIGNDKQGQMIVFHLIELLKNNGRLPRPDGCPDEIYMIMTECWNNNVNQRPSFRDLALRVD

By IC50 is commonly meant the midpoint of a concentration-inhibition curve. For the compound `CCc1ccc(Cl)cc1-c1[nH]c(-c2ncnc3[nH]ccc23)cc1C(N)=O` [compd 199, 2-(5-Chloro-2-ethylphenyl)-5-(7H-pyrrolo[2,3-d]pyrimidin-4-yl)-1H-pyrrole-3-carboxamide], the IC50 was 100 nM in assay [1]; over 10000 nM in assay [2]; 7 nM against JAK1 kinase domain; 3 nM against TYK2 kinase domain; 1 nM against JAK2 kinase domain; 194 nM in assay [3].
As to `CCc1ccc(C(F)(F)F)cc1-c1cc(-c2ncnc3[nH]ccc23)[nH]c1C(N)=O` [compd 125, 3-[2-Ethyl-5-(trifluoromethyl)phenyl]-5-(7H-pyrrolo[2,3-d]pyrimidin-4-yl)-1H-pyrrole-2-carboxamide], the IC50 in assay [1] is 300 nM; in assay [2] it was over 10000 nM; at JAK1 kinase domain, 19 nM; against TYK2 kinase domain it was 32 nM; against JAK2 kinase domain, 6 nM; in assay [3] it was 1080 nM.
As for `CCc1ccc(C(F)(F)F)cc1-c1[nH]c(-c2ncnc3[nH]ccc23)cc1C(N)=O` [compd 220, 2-[2-Ethyl-5-(trifluoromethyl)phenyl]-5-(7H-pyrrolo[2,3-d]pyrimidin-4-yl)-1H-pyrrole-3-carboxamide], the IC50 came to 150 nM in assay [1]; 6870 nM in assay [2]; 19 nM on JAK1 kinase domain; 20 nM at TYK2 kinase domain; 2 nM on JAK2 kinase domain; 591 nM in assay [3].
As for `Cc1ccc(Cl)cc1-c1cn(-c2ncnc3[nH]ccc23)cc1C(N)=O` [compd 270, 4-(5-Chloro-2-methylphenyl)-1-(7H-pyrrolo[2,3-d]pyrimidin-4-yl)-1H-pyrrole-3-carboxamide], the IC50 in assay [1] is 550 nM; in assay [2] it was 1890 nM; at JAK1 kinase domain, 85 nM; on TYK2 kinase domain, 43 nM; against JAK2 kinase domain it was 17 nM; in assay [3] it was 1790 nM.
With `CCc1ccc(Cl)cc1-c1cc(-c2ncnc3[nH]ccc23)[nH]c1C(N)=O` [compd 124, 3-(5-Chloro-2-ethylphenyl)-5-(7H-pyrrolo[2,3-d]pyrimidin-4-yl)-1H-pyrrole-2-carboxamide], the IC50 in assay [1] was determined as 330 nM; in assay [2] it was 9660 nM; on JAK1 kinase domain, 18 nM; against TYK2 kinase domain, 9 nM; at JAK2 kinase domain, 4 nM; in assay [3], 1070 nM.
As for `CCc1ccc(Cl)cc1-c1[nH]c(-c2cc(NC)ncn2)cc1C(=O)NC` [compd 302, 2-(5-Chloro-2-ethylphenyl)-N-methyl-5-[6-(methylamino)pyrimidin-4-yl]-1H-pyrrole-3-carboxamide], the IC50 in assay [1] was 130 nM; in assay [2], 6610 nM; against JAK1 kinase domain, 1 nM; against TYK2 kinase domain it was 10 nM; against JAK2 kinase domain, 1 nM; in assay [3], 469 nM.
With `CCc1ccc(C(F)(F)F)cc1-c1[nH]c(-c2ncnc3[nH]ccc23)cc1C(=O)NC` [compd 323, 2-[2-Ethyl-5-(trifluoromethyl)phenyl]-N-methyl-5-(7H-pyrrolo[2,3-d]pyrimidin-4-yl)-1H-pyrrole-3-carboxamide], the half-inhibitory concentration (IC50) in assay [1] is 220 nM; in assay [2], over 10000 nM; against JAK1 kinase domain, 6 nM; at TYK2 kinase domain, 22 nM; against JAK2 kinase domain, 3 nM; in assay [3], 510 nM.
Regarding `CCc1ccc(Cl)cc1-c1[nH]c(-c2cc(NC)ncn2)cc1C(N)=O` [compd 198, 2-(5-Chloro-2-ethylphenyl)-5-[6-(methylamino)pyrimidin-4-yl]-1H-pyrrole-3-carboxamide], the 50% inhibitory concentration (IC50) is 190 nM in assay [1]; over 10000 nM in assay [2]; 8 nM at JAK1 kinase domain; 23 nM against TYK2 kinase domain; 2 nM at JAK2 kinase domain; 170 nM in assay [3].
For `CCc1ccc(Cl)cc1-n1cc(-c2ncnc3[nH]ccc23)cc1C#N` [compd 68, 1-(5-Chloro-2-ethylphenyl)-4-(7H-pyrrolo[2,3-d]pyrimidin-4-yl)-1H-pyrrole-2-carbonitrile], the half-inhibitory concentration (IC50) turned out to be 340 nM in assay [1]; 4130 nM in assay [2]; 14 nM against JAK1 kinase domain; 12 nM against TYK2 kinase domain; 6 nM against JAK2 kinase domain; 332 nM in assay [3].
Consider `CCc1ccc(Cl)cc1-n1cc(-c2ncnc3c2CCN3)cc1C(N)=O` [compd 241, 1-(5-Chloro-2-ethylphenyl)-4-(6,7-dihydro-5H-pyrrolo[2,3-d]pyrimidin-4-yl)-1H-pyrrole-2-carboxamide], for which the half-inhibitory concentration (IC50) in assay [1] is 310 nM; in assay [2], over 10000 nM; against JAK1 kinase domain, 8 nM; against TYK2 kinase domain it was 16 nM; against JAK2 kinase domain, 5 nM; in assay [3], 1300 nM.
In the case of `CCc1ccc(Cl)cc1-c1cc(-c2ncnc3[nH]ccc23)[nH]c1C(=O)NC` [compd 130, 3-(5-Chloro-2-ethylphenyl)-N-methyl-5-(7H-pyrrolo[2,3-d]pyrimidin-4-yl)-1H-pyrrole-2-carboxamide], the IC50 in assay [1] is 400 nM; in assay [2], over 10000 nM; against JAK1 kinase domain it was 11 nM; against TYK2 kinase domain it was 7 nM; against JAK2 kinase domain it was 3 nM; in assay [3], 1600 nM.
On to `NC(=O)c1cc(-c2ncnc3[nH]ccc23)cn1-c1cc(C(F)(F)F)ccc1Cl` [compd 244, 1-[2-Chloro-5-(trifluoromethyl)phenyl]-4-(7H-pyrrolo[2,3-d]pyrimidin-4-yl)-1H-pyrrole-2-carboxamide], for which the IC50 in assay [1] amounted to 60 nM; in assay [2], 7230 nM; against JAK1 kinase domain it was 4 nM; against TYK2 kinase domain it was 3 nM; against JAK2 kinase domain, 1 nM; in assay [3], 146 nM.
